A melting point compilation (Tetko et al.; mined from patent text by program, amines drawn as free bases though some values may be those of a salt)

melting point [°C] | Compound
149 | Cc1cc2ccccn2c1C(=O)c1ccc([N+](=O)[O-])cc1
99 to 104 | COc1ccc(C(=O)Cc2c(Cl)cncc2Cl)c2c1OCC2C (stereo not drawn)
106 | CN(C)c1cccc2c(S(=O)(=O)Nc3ccc4nonc4c3)cccc12
87 to 92 | CC(C)n1nc(-c2c(OCC(=O)NC3CC3)nc(N)nc2-c2ccccc2)ccc1=O
155 to 157 | CCC1OCCn2c1nc(C(=O)NCc1ccc(F)cc1-n1cncn1)c(OCc1ccccc1)c2=O (stereo not drawn)
224 to 226 | Cc1cc(N)n(C(=NO)c2cccc([N+](=O)[O-])c2)n1
182 to 183 | CC(=O)n1cc(C#N)c(-c2ccc(F)c(Cl)c2F)c1
113 to 114 | CCOC(=O)CC(=O)c1cc(F)c(S(=O)(=O)CC)nc1Nc1ccc(F)cc1F
245 to 247 | CCc1nc2c(N)nc3cc(-c4cccnc4)ccc3c2n1CC(C)(C)O
178 to 179 | NC(=O)CNC(=O)c1ccc(F)c(-c2ccc(F)c3cc(Cc4cc(F)cc(Cl)c4)sc23)c1
228 to 230 | Cc1c(F)c(N2CCC(n3ccnn3)C2)c(F)c2c1c(=O)c(C(=O)O)cn2C1CC1 (stereo not drawn)
170 to 171 | CCOCCn1c(C)c(C2(c3ccc(N(C)C)cc3C)OC(=O)c3ccccc32)c2ccccc21 (stereo not drawn)
237 to 238 | Cc1cc(Br)c2c(c1)C=C(C(=O)O)C(C(F)(F)F)O2 (stereo not drawn)
149 to 150 | CCOC(=O)c1cccc(Nc2nccc(-c3ccnc(Cl)c3)n2)c1
82 to 105 | COc1cc2c(cc1Nc1ncc(Cl)c(Nc3ccc(N4CCOCC4)cc3OC)n1)CCN(CC(=O)N1CCCC1)CC2
101 to 102 | CCC(=O)c1cc2c(Oc3ccc(Cl)cc3)cncc2s1
159 to 161 | COC(=O)C=Cc1ccc(OCc2nc(-c3ccccc3)c(-c3ccccc3)o2)cc1
93 to 94 | CCOc1c(OC)cccc1-c1nc2ccc(C(=O)Cl)cc2c(=O)[nH]1
93 to 97 | CCCCn1nnnc1-c1c(O)ccc(-c2cccc(C(=O)OC)c2)c1O
98 to 99 | COC1CC(C)(C)C(O)C(OC(=O)c2ccccc2)C=C1C (stereo not drawn)

The remaining lines, values behind:

Compound | melting point [°C]
COC(=O)C(O)(c1ccc(C)cc1)c1ccc(C)cc1 | 83 to 84
COC(=O)c1ccc(COc2cc3c(=O)ccn4c5ccc(Br)cc5c(c2)c34)nc1 | 75.2 to 76.3
Cc1ccc(OCc2ccccc2)c2[nH]c(CCc3ccccc3)nc12 | 203 to 204
COC(=O)c1c(Oc2ccc(Cl)cc2[N+](=O)[O-])c2ccccc2n1Cc1ccccc1 | 120 to 121
CCOC(=O)C1(C(=O)OCC)CCC2(NCCc3cc(OC)c(OC)cc32)C(C2c3cc(OC)c(OC)cc3CCN2CC)C1 (stereo not drawn) | 146 to 147
COC(=O)COc1nsc2nc(C)cc(C)c12 | 89 to 91
CC(=O)Nc1cc(C)c2c(C)c(C)[nH]c2c1 | 255
Nc1cccc(CCc2n[nH]c3c2c(=O)n(-c2ccccc2)c2ncccc32)c1 | 229 to 231
O=C(Nc1cc(Cl)cc(Cl)c1)c1cnc(Nc2ccccc2)nc1C(F)(F)F | 228 to 229
CS(=O)(=O)Nc1ccc(C(=O)NCC23CCCN(CCC2)C3)cc1 | 137 to 139
O=C(O)CCc1ccc(CC(=O)OCc2ccccc2)cc1 | 62 to 64.5
Nc1nc(-c2cc(Cl)ccc2Cl)nc(N2CCC(O)CC2)n1 | 222 to 224
CSCOC1CCC2C3CCC4=CC(=O)C=CC4(C)C3(F)C(O)CC12C (stereo not drawn) | 224 to 225
CCOC(=O)c1nc(-c2ccc(C(C)(C)C)cc2)[nH]c1-c1ccc([N+](=O)[O-])cc1 | 190 to 191
C=C1[C@H](C(=O)OC)[C@H]1C(=O)OC | 34.1 to 34.9
CCCCC(=O)N[C@H]1CC[C@H](CCN2CCN(c3nccc4c3OCC4)CC2)CC1 | 168
CCC1(CCI)C(=O)N2CC=CC(C(=O)OC)N2C1=O (stereo not drawn) | 95 to 97
OC1(c2ccc(-c3cncnc3)cc2)CN2CCC1CC2 (stereo not drawn) | 184 to 185
